# ChEMBL document CHEMBL1157348, “The alkaloid conessine and analogues as potent histamine H3 receptor antagonists” (J Med Chem, 2008)
# Activity calls are given as the source filed them. The rule behind the calls is not given here.
# Legend:
# [1] = target: T1, Muscarinic acetylcholine receptor M1 (Homo sapiens, UniProt P11229); assay: Binding affinity at muscarinic M1 receptor
# T1 sequence (P11229 whole entry): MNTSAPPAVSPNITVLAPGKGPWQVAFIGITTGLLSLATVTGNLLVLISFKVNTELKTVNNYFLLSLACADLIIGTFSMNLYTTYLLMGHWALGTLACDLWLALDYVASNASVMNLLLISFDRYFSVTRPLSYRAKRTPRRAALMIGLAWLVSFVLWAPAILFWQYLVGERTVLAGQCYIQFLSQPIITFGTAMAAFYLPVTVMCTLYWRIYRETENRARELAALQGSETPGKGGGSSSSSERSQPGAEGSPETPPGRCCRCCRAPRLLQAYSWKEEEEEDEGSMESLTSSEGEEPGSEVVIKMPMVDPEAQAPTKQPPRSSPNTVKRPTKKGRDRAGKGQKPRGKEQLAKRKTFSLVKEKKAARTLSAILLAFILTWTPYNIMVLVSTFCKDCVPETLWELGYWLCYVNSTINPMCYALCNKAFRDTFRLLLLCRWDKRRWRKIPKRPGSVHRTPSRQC
# [2] = target: T2, Alpha-2C adrenergic receptor (Homo sapiens, UniProt P18825); assay: Displacement of [3H]rauwolscine from human adrenergic alpha 2C4 receptor expressed in mouse LTK- cells; format: cell-based
# T2 sequence (P18825 whole entry): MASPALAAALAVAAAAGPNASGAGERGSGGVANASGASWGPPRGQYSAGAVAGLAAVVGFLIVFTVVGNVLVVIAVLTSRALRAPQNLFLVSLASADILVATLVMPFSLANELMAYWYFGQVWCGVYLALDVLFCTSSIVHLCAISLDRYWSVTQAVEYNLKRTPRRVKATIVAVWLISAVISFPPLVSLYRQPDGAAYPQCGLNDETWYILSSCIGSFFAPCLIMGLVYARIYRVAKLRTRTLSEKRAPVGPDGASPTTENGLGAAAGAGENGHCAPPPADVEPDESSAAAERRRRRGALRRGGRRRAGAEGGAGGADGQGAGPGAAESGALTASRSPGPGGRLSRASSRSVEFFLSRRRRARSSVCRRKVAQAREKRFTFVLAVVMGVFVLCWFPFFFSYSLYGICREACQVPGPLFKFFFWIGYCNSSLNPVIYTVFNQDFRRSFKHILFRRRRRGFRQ
# Histamine H3 receptor [3] = target: Histamine H3 receptor (Rattus norvegicus, UniProt Q9QYN8); assay: Displacement of [3H]NAMH from histamine H3 receptor in rat cortex; conditions: read-out: Ki
# Rattus norvegicus = assay: Toxicity in rat assessed as CNS side effects at 1.3 to 13 mg/kg, ip; format: organism-based; set-up: dose 1.3-13 mg/kg, route intraperitoneal; conditions: in vivo
# Histamine H3 receptor [4] = target: T3, Histamine H3 receptor (Homo sapiens, UniProt Q9Y5N1); assay: Antagonist activity at human full length histamine H3 receptor expressed in HEK293 cells assessed as inhibition of (R)-alpha-methylhistamine-induced intracellular calcium release by FLIPR; format: functional, cell-based
# Histamine H3 receptor [5] = target: T3, Histamine H3 receptor; assay: Antagonist activity at H3 receptor assessed as inhibition of [35S]gammaGTP binding relative to control
# Phospholipidosis = assay: In vitro phospholipidosis index at 6.25 uM compared to amiodarone at 10 uM; format: ADME, cell-based, Hepatocyte; conditions: hepatocytes
# [6] = Binding affinity at serotonin receptor
# Progesterone receptor = target: T4, Progesterone receptor (Homo sapiens, UniProt P06401); assay: Binding affinity at progesterone receptor
# T4 sequence (P06401 whole entry): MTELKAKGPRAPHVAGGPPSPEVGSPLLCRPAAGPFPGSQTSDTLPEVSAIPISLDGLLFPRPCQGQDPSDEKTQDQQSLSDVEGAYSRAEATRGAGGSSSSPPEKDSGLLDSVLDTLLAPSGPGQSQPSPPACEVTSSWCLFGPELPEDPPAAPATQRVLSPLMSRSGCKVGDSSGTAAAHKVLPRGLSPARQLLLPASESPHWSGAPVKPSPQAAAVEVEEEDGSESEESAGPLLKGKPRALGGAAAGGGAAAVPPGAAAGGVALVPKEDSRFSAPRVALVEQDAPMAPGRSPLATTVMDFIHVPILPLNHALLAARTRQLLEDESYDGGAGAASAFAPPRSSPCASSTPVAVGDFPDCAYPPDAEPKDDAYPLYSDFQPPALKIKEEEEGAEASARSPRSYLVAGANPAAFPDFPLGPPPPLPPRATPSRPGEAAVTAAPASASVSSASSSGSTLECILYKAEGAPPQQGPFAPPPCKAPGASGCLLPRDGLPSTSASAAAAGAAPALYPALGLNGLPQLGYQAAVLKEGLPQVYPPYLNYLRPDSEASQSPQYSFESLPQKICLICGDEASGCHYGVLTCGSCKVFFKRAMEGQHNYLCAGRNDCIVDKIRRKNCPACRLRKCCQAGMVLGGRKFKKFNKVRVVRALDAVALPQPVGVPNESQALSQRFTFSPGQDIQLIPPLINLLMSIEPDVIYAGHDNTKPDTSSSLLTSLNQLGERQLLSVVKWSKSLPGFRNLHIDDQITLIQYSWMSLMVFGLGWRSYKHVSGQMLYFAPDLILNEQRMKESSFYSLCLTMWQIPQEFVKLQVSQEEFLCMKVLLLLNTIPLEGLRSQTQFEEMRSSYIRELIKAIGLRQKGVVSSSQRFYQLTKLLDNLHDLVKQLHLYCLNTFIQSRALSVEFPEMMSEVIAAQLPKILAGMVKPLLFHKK
# [7] = Binding affinity at dopamine receptor
# [8] = Oral bioavailability in rat; format: ADME, organism-based; conditions: in vivo
# Histamine H3 receptor [9] = target: T3, Histamine H3 receptor; assay: Displacement of [3H]NAMH from human full length histamine H3 receptor expressed in rat C6 cells; format: cell-based
# Histamine H3 receptor [10] = target: T3, Histamine H3 receptor; assay: Antagonist activity at H3 receptor assessed as inhibition of forskolin-induced cAMP release by SPA; format: functional
# [11] = Inhibition of CYP enzyme; format: ADME
# Mus musculus = assay: Increase in learning and memory performance in mouse at 0.01 mg/kg, ip after 24 hrs by passive avoidance test; format: functional, organism-based; set-up: dose 0.01 mg/kg
# T3 sequence (Q9Y5N1 whole entry): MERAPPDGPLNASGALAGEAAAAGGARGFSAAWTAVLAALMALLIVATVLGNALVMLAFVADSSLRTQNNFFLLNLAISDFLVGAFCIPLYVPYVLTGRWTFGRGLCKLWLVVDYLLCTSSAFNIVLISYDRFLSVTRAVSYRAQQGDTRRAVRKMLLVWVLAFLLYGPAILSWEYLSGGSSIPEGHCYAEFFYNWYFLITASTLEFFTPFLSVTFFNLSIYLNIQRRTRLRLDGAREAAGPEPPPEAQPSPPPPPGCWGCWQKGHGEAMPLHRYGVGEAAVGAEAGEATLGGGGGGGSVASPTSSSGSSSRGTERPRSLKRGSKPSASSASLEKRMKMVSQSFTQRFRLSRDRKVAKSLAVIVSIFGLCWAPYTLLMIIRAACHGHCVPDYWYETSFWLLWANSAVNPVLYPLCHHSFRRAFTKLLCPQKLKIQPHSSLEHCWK
# Sequence of Histamine H3 receptor (Rattus norvegicus, UniProt Q9QYN8) (Q9QYN8 whole entry): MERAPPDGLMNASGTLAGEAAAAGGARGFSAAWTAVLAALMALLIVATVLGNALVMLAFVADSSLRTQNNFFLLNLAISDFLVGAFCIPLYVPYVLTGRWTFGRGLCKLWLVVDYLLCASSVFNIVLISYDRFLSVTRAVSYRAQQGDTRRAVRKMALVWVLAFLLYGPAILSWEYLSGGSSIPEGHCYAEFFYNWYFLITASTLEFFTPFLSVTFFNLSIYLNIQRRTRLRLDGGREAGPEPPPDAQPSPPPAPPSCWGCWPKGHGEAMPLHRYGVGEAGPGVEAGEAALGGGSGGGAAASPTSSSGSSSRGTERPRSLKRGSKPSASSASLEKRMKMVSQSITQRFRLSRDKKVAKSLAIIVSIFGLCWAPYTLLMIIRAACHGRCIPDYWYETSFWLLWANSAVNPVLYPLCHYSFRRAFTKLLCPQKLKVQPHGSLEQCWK
smiles,measurement,setting,value
CN[C@@H](C(=O)N(C)[C@H]1CC[C@@]2(C)C(=CC[C@H]3[C@@H]4CC[C@@H]5[C@H](C)N(C)C[C@@]54CC[C@@H]32)C1)C(C)C,Ki,[1],11 nM
same,Ki,[2],77.6 nM
same,Ki,Histamine H3 receptor [3],2.57 nM
same,Activity,Rattus norvegicus,Non-toxic
same,Kb,Histamine H3 receptor [4],4 nM
same,EC50,Histamine H3 receptor [5],3.3 nM
same,Phospholipidosis_index,Phospholipidosis,0.42
same,Ki,[6],> 10000 nM
same,Ki,Progesterone receptor,> 30000 nM
same,Ki,[7],> 10000 nM
same,bioavailability,[8],65%
same,Ki,Histamine H3 receptor [9],0.21 nM
same,Kb,Histamine H3 receptor [10],4 nM
same,IC50,[11],> 10000 nM
same,Activity,Mus musculus,Active
